Assay results published in patent publication US8614206B2 (Genentech, Inc., priority 2011, dated 2013).

Biological target: PIM1 (Homo sapiens (Human), UniProt P11309)
Assay: Pim kinase inhibition, PIM1 LC3K (Example 901)
Format: biochemical
From the text: Determination of the Pim kinase activity of a Formula I compound is possible by a number of direct and indirect detection methods.

Chain of PIM1 (P11309 whole entry): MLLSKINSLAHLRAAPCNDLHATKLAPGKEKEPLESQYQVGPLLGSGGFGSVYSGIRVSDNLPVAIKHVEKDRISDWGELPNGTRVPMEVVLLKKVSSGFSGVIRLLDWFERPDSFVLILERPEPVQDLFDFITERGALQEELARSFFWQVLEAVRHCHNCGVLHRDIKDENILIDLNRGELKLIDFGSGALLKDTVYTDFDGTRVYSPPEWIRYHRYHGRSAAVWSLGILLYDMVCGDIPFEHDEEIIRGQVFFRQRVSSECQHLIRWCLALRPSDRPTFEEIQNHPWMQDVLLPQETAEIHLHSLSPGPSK

Ki [nM]	Structure (SMILES)
0.038	Cc1ccc(F)c(-c2nc(C(=O)Nc3cnn(C)c3N3CC[C@@H](N)[C@@H](F)CC3)c(N)s2)c1 [Example 265, 5-amino-N-(5-((4R,5S)-4-amino-5-fluoroazepan-1-yl)-1-methyl-1H-pyrazol-4-yl)-2-(2-fluoro-5-methylphenyl)thiazole-4-carboxamide]
0.253	Cn1ncc(NC(=O)c2nc(-c3cc(F)ccc3F)sc2N)c1N1CC[C@@H](F)[C@@H](N)CC1 [Example 266, 5-amino-N-(5-((4S,5R)-4-amino-5-fluoroazepan-1-yl)-1-methyl-1H-pyrazol-4-yl)-2-(2,5-difluorophenyl)thiazole-4-carboxamide]
0.186	Cn1ncc(NC(=O)c2nc(-c3ncccc3F)sc2N)c1N1CC[C@@H](N)[C@H](F)CC1 [Example 268, 5-amino-N-(5-((4R,5R)-4-amino-5-fluoroazepan-1-yl)-1-methyl-1H-pyrazol-4-yl)-2-(3-fluoropyridin-2-yl)thiazole-4-carboxamide]
0.091	Cn1ncc(NC(=O)c2nc(-c3ncccc3F)sc2N)c1N1CC[C@H](N)[C@@H](F)CC1 [Example 269, 5-amino-N-(5-((4S,5S)-4-amino-5-fluoroazepan-1-yl)-1-methyl-1H-pyrazol-4-yl)-2-(3-fluoropyridin-2-yl)thiazole-4-carboxamide]
0.058	Cn1ncc(NC(=O)c2nc(-c3cc(F)ccc3F)sc2N)c1N1CC[C@@H](N)[C@@H](F)CC1 [Example 271, 5-amino-N-(5-((4R,5S)-4-amino-5-fluoroazepan-1-yl)-1-methyl-1H-pyrazol-4-yl)-2-(2,5-difluorophenyl)thiazole-4-carboxamide]
0.147	Cc1ccc(F)c(-c2nc(C(=O)Nc3cnn(C)c3N3CC[C@@H](F)[C@@H](N)CC3)c(N)s2)c1 [Example 272, 5-amino-N-(5-((4S,5R)-4-amino-5-fluoroazepan-1-yl)-1-methyl-1H-pyrazol-4-yl)-2-(2-fluoro-5-methylphenyl)thiazole-4-carboxamide]
0.02	Nc1sc(-c2c(F)cccc2F)nc1C(=O)Nc1cnn(CC(F)F)c1N1CC[C@@H](N)CC(F)(F)C1 [Example 281]
0.004	Cn1ncc(NC(=O)c2nc(-c3cc(F)ccc3F)sc2N)c1N1CC[C@H](N)CC(F)(F)C1 [Example 282, (S)-5-amino-N-(5-(5-amino-3,3-difluoroazepan-1-yl)-1-methyl-1H-pyrazol-4-yl)-2-(2,5-difluorophenyl)thiazole-4-carboxamide]
0.008	Cn1ncc(NC(=O)c2nc(-c3cc(F)ccc3F)sc2N)c1N1CC[C@@H](N)CC(F)(F)C1 [Example 283, (R)-5-amino-N-(5-(5-amino-3,3-difluoroazepan-1-yl)-1-methyl-1H-pyrazol-4-yl)-2-(2,5-difluorophenyl)thiazole-4-carboxamide]
0.015	Cc1ccc(F)c(-c2nc(C(=O)Nc3cnn(C)c3N3CC[C@H](N)CC(F)(F)C3)c(N)s2)c1 [Example 284, (S)-5-amino-N-(5-(5-amino-3,3-difluoroazepan-1-yl)-1-methyl-1H-pyrazol-4-yl)-2-(2-fluoro-5-methylphenyl)thiazole-4-carboxamide]
0.018	Cc1ccc(F)c(-c2nc(C(=O)Nc3cnn(C)c3N3CC[C@@H](N)CC(F)(F)C3)c(N)s2)c1 [Example 285]
2.1	C[C@H]1CN(c2c(NC(=O)c3nc(-c4c(F)cccc4F)sc3N)cnn2CC(F)(F)F)CCN1 [Example 301, (S)-5-Amino-2-(2,6-difluorophenyl)-N-(5-(3-methylpiperazin-1-yl)-1-(2,2,2-trifluoroethyl)-1H-pyrazol-4-yl)thiazole-4-carboxamide]
0.175	Nc1sc(-c2c(F)cccc2F)nc1C(=O)Nc1cnn(CC(F)(F)F)c1N1CCCCC(N)C1 (stereo not drawn) [Example 302, 5-Amino-2-(2,6-difluoro-phenyl)-thiazole-4-carboxylic acid [5-(3-amino-azepan-1-yl)-1-(2,2,2-trifluoro-ethyl)-1H-pyrazol-4-yl]-amide]
0.208	Nc1sc(-c2c(F)cccc2F)nc1C(=O)Nc1cnn(CC(F)(F)F)c1N1CCCCC(N)C1 (stereo not drawn) [Example 303, 5-Amino-2-(2,6-difluoro-phenyl)-thiazole-4-carboxylic acid [5-(3-amino-azepan-1-yl)-1-(2,2,2-trifluoro-ethyl)-1H-pyrazol-4-yl]-amide]
0.087	Cc1ccc(F)c(-c2nc(C(=O)Nc3cnn(C4CC4)c3N3CCC(N)C(F)CC3)c(N)s2)c1 (stereo not drawn) [Example 330, 5-amino-N-[5-(4-amino-5-fluoro-azepan-1-yl)-1-cyclopropyl-pyrazol-4-yl]-2-(2-fluoro-5-methyl-phenyl)thiazole-4-carboxamide]
0.295	Cn1ncc(NC(=O)c2nc(-c3c(F)cccc3F)sc2N)c1N1CCC[C@H](NCC2(C)COC2)CC1 [Example 334, 5-amino-2-(2,6-difluorophenyl)-N-[1-methyl-5-[(4S)-4-[(3-methyloxetan-3-yl)methylamino]azepan-1-yl]pyrazol-4-yl]thiazole-4-carboxamide]
0.199	Cn1ncc(NC(=O)c2nc(-c3c(F)cccc3F)sc2N)c1N1CCC[C@H](N(CCO)CCO)CC1 [Example 336, 5-amino-N-[5-[(4S)-4-[bis(2-hydroxyethyl)amino]azepan-1-yl]-1-methyl-pyrazol-4-yl]-2-(2,6-difluorophenyl)thiazole-4-carboxamide]

Ki [nM]	Structure (SMILES)
0.159	Nc1sc(-c2cc(F)ccc2F)nc1C(=O)Nc1cnn(C2CC2)c1N1CCC(N)C(F)CC1 (stereo not drawn) [Example 338, 5-amino-N-[5-(4-amino-5-fluoro-azepan-1-yl)-1-cyclopropyl-pyrazol-4-yl]-2-(2,5-difluorophenyl)thiazole-4-carboxamide]
0.226	Nc1sc(-c2cc(F)ccc2F)nc1C(=O)Nc1cnn(C2CC2)c1N1CCC(N)C(F)CC1 (stereo not drawn) [Example 339, 5-amino-N-[5-(4-amino-5-fluoro-azepan-1-yl)-1-cyclopropyl-pyrazol-4-yl]-2-(2,5-difluorophenyl)thiazole-4-carboxamide]
0.075	Cn1ncc(NC(=O)c2nc(-c3c(F)cccc3F)sc2N)c1N1CCC[C@H](NCC2COC2)CC1 [Example 342, 5-amino-2-(2,6-difluorophenyl)-N-[1-methyl-5-[(4S)-4-(oxetan-3-ylmethylamino)azepan-1-yl]pyrazol-4-yl]thiazole-4-carboxamide]
0.962	Cn1ncc(NC(=O)c2nc(-c3c(F)cccc3F)sc2N)c1N1CCC[C@H](N(CC2COC2)CC2COC2)CC1 [Example 343, 5-amino-N-[5-[(4S)-4-[bis(oxetan-3-ylmethyl)amino]azepan-1-yl]-1-methyl-pyrazol-4-yl]-2-(2,6-difluorophenyl)thiazole-4-carboxamide]
0.783	Cn1ncc(NC(=O)c2nc(-c3c(F)cccc3F)sc2N)c1N1CCC2(CNC2)C1 [Example 359, 5-amino-N-[5-(2,6-diazaspiro[3.4]octan-6-yl)-1-methyl-pyrazol-4-yl]-2-(2,6-difluorophenyl)thiazole-4-carboxamide]
0.391	Cn1ncc(NC(=O)c2nc(-c3c(F)cccc3F)sc2N)c1N1CCC2(CCNC2=O)CC1 [Example 360, 5-amino-2-(2,6-difluorophenyl)-N-[1-methyl-5-(1-oxo-2,8-diazaspiro[4.5]decan-8-yl)pyrazol-4-yl]thiazole-4-carboxamide]
0.25	Cn1ncc(NC(=O)c2nc(-c3c(F)cccc3F)sc2N)c1N1CCCN(C2CNC2)CC1 [Example 362, 5-amino-N-[5-[4-(azetidin-3-yl)-1,4-diazepan-1-yl]-1-methyl-pyrazol-4-yl]-2-(2,6-difluorophenyl)thiazole-4-carboxamide]
0.247	CCn1ncc(NC(=O)c2nc(-c3c(F)cccc3F)sc2N)c1N1CC[C@H](OC)[C@@H](N)CC1 [Example 364, 5-amino-N-(5-((4S,5S)-4-amino-5-methoxyazepan-1-yl)-1-ethyl-1H-pyrazol-4-yl)-2-(2,6-difluorophenyl)thiazole-4-carboxamide]
0.223	CCn1ncc(NC(=O)c2nc(-c3c(F)cccc3F)sc2N)c1N1CC[C@H](N)[C@H](OC)CC1 [Example 376, 5-amino-N-(5-((4S,5R)-4-amino-5-methoxyazepan-1-yl)-1-ethyl-1H-pyrazol-4-yl)-2-(2,6-difluorophenyl)thiazole-4-carboxamide]
2.81	Cn1ncc(NC(=O)c2nc(-c3c(F)cccc3F)sc2N)c1N1CCNCC(C#N)C1 (stereo not drawn) [Example 382, 5-amino-N-[5-(6-cyano-1,4-diazepan-1-yl)-1-methyl-pyrazol-4-yl]-2-(2,6-difluorophenyl)thiazole-4-carboxamide]
0.613	CC(=O)NC1(C)CCCN(c2c(NC(=O)c3nc(-c4ncccc4F)sc3N)cnn2C)CC1 (stereo not drawn) [Example 384, N-[5-(4-acetamido-4-methyl-azepan-1-yl)-1-methyl-pyrazol-4-yl]-5-amino-2-(3-fluoro-2-pyridyl)thiazole-4-carboxamide]
0.103	CO[C@@H]1CCN(c2c(NC(=O)c3nc(-c4c(F)cccc4F)sc3N)cnn2C2CC2)CC[C@@H]1N [Example 386, 5-amino-N-(5-((4S,5R)-4-amino-5-methoxyazepan-1-yl)-1-cyclopropyl-1H-pyrazol-4-yl)-2-(2,6-difluorophenyl)thiazole-4-carboxamide]
14	Cn1ncc(NC(=O)c2nc(-c3cccc(O)n3)sc2N)c1N1CCC[C@H](N)CC1 [Example 393, 5-amino-N-[5-[(4S)-4-aminoazepan-1-yl]-1-methyl-pyrazol-4-yl]-2-(6-hydroxy-2-pyridyl)thiazole-4-carboxamide]
2.12	Cn1ncc(NC(=O)c2nc(-c3ccnc(F)c3)sc2N)c1N1CCC[C@H](N)CC1 [Example 417, 5-amino-N-[5-[(4S)-4-aminoazepan-1-yl]-1-methyl-pyrazol-4-yl]-2-(2-fluoro-4-pyridyl)thiazole-4-carboxamide]
0.785	Cn1cc(-c2nc(C(=O)Nc3cnn(C)c3N3CCC[C@H](N)CC3)c(N)s2)cn1 [Example 419, 5-amino-N-[5-[(4S)-4-aminoazepan-1-yl]-1-methyl-pyrazol-4-yl]-2-(1-methylpyrazol-4-yl)thiazole-4-carboxamide]
4.25	Cn1ncc(NC(=O)c2nc(-c3cncc(F)c3)sc2N)c1N1CCC[C@H](N)CC1 [Example 420, 5-amino-N-[5-[(4S)-4-aminoazepan-1-yl]-1-methyl-pyrazol-4-yl]-2-(5-fluoro-3-pyridyl)thiazole-4-carboxamide]
